Assay results as given in ChEMBL document CHEMBL1143153, “BACE-1 inhibitors part 1: identification of novel hydroxy ethylamines (HEAs)” (Bioorg Med Chem Lett, 2008).

Legend:
Beta-secretase 1 [1] = molecular target: T1, Beta-secretase 1 (Homo sapiens, UniProt P56817); assay: Inhibition of BACE1
Beta-secretase 2 = molecular target: T2, Beta-secretase 2 (Homo sapiens, UniProt Q9Y5Z0); assay: Inhibition of BACE2
T2 sequence (Q9Y5Z0 whole entry): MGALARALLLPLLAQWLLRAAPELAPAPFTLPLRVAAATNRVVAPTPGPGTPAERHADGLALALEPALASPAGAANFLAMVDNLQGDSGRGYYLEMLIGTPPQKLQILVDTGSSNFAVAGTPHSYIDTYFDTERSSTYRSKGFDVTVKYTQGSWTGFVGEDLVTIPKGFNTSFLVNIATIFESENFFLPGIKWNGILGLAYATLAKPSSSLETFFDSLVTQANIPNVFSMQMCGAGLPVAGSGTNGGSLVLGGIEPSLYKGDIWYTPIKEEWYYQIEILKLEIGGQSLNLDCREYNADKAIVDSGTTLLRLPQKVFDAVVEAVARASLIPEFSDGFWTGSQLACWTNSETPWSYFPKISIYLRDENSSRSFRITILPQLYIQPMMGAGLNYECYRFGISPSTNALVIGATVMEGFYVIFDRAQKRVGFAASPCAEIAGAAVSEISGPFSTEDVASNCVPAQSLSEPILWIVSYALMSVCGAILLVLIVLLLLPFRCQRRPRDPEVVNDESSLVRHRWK

Cathepsin D = Cathepsin D (Homo sapiens, UniProt P07339); assay: Inhibition of cathepsin D
Chain of Cathepsin D (P07339 65-162 limits assumed): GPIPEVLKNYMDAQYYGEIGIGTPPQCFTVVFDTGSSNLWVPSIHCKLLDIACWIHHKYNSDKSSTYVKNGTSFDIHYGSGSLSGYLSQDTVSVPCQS
Chain of Cathepsin D (P07339 169-412 limits assumed): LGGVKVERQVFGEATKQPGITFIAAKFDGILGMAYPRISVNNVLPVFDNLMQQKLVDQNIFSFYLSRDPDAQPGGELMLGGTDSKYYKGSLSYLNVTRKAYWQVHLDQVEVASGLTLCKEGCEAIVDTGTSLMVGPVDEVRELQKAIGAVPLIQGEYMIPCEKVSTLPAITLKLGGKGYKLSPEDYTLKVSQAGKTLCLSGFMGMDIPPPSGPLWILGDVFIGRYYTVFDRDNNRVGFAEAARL

Beta-secretase 1 [2] = molecular target: T1, Beta-secretase 1; assay: Inhibition of BACE1 expressed in SHSY5Y cells assessed as reduction of amyloid beta 40 production; assay type: cell-based, SH-SY5Y
Beta-secretase 1 [3] = molecular target: T1, Beta-secretase 1; assay type: cell-based, SH-SY5Y

T1 sequence (P56817 whole entry): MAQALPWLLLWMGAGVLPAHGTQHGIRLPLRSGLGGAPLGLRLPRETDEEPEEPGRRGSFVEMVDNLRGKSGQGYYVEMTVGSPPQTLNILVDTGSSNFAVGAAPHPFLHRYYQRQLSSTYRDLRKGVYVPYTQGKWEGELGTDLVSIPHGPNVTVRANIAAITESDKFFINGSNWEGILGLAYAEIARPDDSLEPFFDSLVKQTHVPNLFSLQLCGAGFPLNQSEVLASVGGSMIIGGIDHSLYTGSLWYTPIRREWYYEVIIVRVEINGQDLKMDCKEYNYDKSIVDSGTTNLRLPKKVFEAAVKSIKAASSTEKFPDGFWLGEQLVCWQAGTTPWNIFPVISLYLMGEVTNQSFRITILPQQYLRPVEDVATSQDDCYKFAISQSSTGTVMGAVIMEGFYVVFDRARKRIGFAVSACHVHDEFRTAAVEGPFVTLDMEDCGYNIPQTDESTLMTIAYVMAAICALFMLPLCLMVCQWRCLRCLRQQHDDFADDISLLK

| IC50 (Beta-secretase 1 [1]) [nM] | IC50 (Beta-secretase 2) [nM] | IC50 (Cathepsin D) [nM] | IC50 (Beta-secretase 1 [2]) [nM] | IC50 (Beta-secretase 1 [3]) [nM] | Structure (SMILES) |
| --- | --- | --- | --- | --- | --- |
| 120 | 4790 | 12300 | 1130 | 1180 | CC(C)Oc1cc(C(=O)N[C@@H](Cc2ccccc2)[C@H](O)CN[C@@H](C)C(=O)NC2CCCCC2)cc(N2CCCC2=O)c1 |
| 32 | 400 | 430 |  |  | CCCCCOc1cc(C(=O)N[C@@H](Cc2ccccc2)[C@H](O)CN[C@@H](C)C(=O)NC2CCCCC2)cc(N2CCCC2=O)c1 |
| 745 | 28600 | 30000 |  |  | COc1cc(C(=O)N[C@@H](Cc2ccccc2)[C@H](O)CN[C@@H](C)C(=O)NC2CCCCC2)cc(N2CCCC2=O)c1 |
| 39 | 830 | 5410 | 330 | 280 | CC(C)Nc1cc(C(=O)N[C@@H](Cc2ccccc2)[C@H](O)CN[C@@H](C)C(=O)NC2CCCCC2)cc(N2CCCC2=O)c1 |
| 180 | 650 | 3090 |  |  | CC(C)CNc1cc(C(=O)N[C@@H](Cc2ccccc2)[C@H](O)CN[C@@H](C)C(=O)NC2CCCCC2)cc(N2CCCC2=O)c1 |
|  | 8240 | 47100 | 1690 | 1380 | CCCOc1cc(C(=O)N[C@@H](Cc2ccccc2)[C@H](O)CN[C@@H](C)C(=O)NC2CCCCC2)cc(N2CCCC2=O)c1 |
|  | 3600 | 600 |  |  | CCCCCS(=O)(=O)c1cccc(C(=O)N[C@@H](Cc2ccccc2)[C@H](O)CN[C@@H](C)C(=O)NC2CCCCC2)c1 |
| 1450 | 12900 | 6170 |  |  | CCOc1cc(C(=O)N[C@@H](Cc2ccccc2)[C@H](O)CN[C@@H](C)C(=O)NC2CCCCC2)cc(N2CCCC2)c1 |

Continued, molecule first:

| Structure (SMILES) | IC50 (Beta-secretase 1 [1]) [nM] | IC50 (Beta-secretase 2) [nM] | IC50 (Cathepsin D) [nM] | IC50 (Beta-secretase 1 [2]) [nM] | IC50 (Beta-secretase 1 [3]) [nM] |
| --- | --- | --- | --- | --- | --- |
| C[C@@H](C(=O)NC1CCCCC1)N(C)C[C@@H](O)[C@H](Cc1ccccc1)NC(=O)c1cccc(S(C)(=O)=O)c1 | > 500000 |  |  |  |  |
| CC(C)C[C@H](NC(=O)c1cccc(S(C)(=O)=O)c1)[C@H](O)CN[C@@H](C)C(=O)NC1CCCCC1 | > 500000 |  |  |  |  |
| CC(=O)Nc1ccc(C(=O)N[C@@H](Cc2ccccc2)[C@H](O)CN[C@@H](C)C(=O)NC2CCCCC2)cc1 | 62000 | > 100000 | > 100000 |  |  |
| C[C@H](NC[C@H](O)[C@H](Cc1ccccc1)NC(=O)c1cccc(S(C)(=O)=O)c1)C(=O)NC1CCCCC1 | > 500000 |  |  |  |  |
| C[C@H](NC[C@@H](O)[C@H](Cc1ccccc1)NC(=O)c1cc(N2CCCC2)cc(N2CCCC2=O)c1)C(=O)NC1CCCCC1 | 860 | 8790 | 9280 |  |  |
| CCOc1cc(C(=O)N[C@@H](Cc2ccccc2)[C@H](O)CN[C@@H](C)C(=O)NC2CCCCC2)cc(N2CCCC2=O)c1 | 59 | 5130 | 7940 | 970 | 1420 |
| C[C@H](NC[C@@H](O)[C@H](Cc1ccccc1)NC(=O)c1cccc(N2CCCS2(=O)=O)c1)C(=O)NC1CCCCC1 | 1900 | > 21000 | 10000 |  |  |
| CCCc1cc(C(=O)N[C@@H](Cc2ccccc2)[C@H](O)CN[C@@H](C)C(=O)NC2CCCCC2)cc(N2CCCC2=O)c1 | 72 | 1580 | 4570 | 990 | 690 |
